# Data from US8883841B2, “Oncogenic ras-specific cytotoxic compound and methods of use thereof” (The Board of Regents of the University of Texas System, priority 2005, dated 2014).
# Tests used:
# [1] = system: panel of 60 cancer cell lines; test: NCI Developmental Therapeutics Program in-vitro testing, panel of 60 cancer cell lines (whole panel); type: cell-based; details: leukemia, non small lung, colon, melanoma, ovarian, renal, breast
# M14 = test: NCI in-vitro testing, M14 (Melanoma)
# MOLT-4 = test: NCI in-vitro testing, MOLT-4 (Leukemia)
# KM12 = test: NCI in-vitro testing, KM12 (Colon Cancer); details: KM12
# SF-295 = test: NCI in-vitro testing, SF-295 (CNS Cancer)
# SF-539 = test: NCI in-vitro testing, SF-539 (CNS Cancer)
# A498 = test: NCI in-vitro testing, A498 (Renal Cancer)
# TK-10 = test: NCI in-vitro testing, TK-10 (Renal Cancer)
# MCF7 = test: NCI in-vitro testing, MCF7 (Breast Cancer)
# HCT-15 = test: NCI in-vitro testing, HCT-15 (Colon Cancer)
# RXF 393 = test: NCI in-vitro testing, RXF 393 (Renal Cancer)
# BT-549 = test: NCI in-vitro testing, BT-549 (Breast Cancer)
# NCI/ADR-RES = test: NCI in-vitro testing, NCI/ADR-RES (Breast Cancer)
# NCI-H23 = test: NCI in-vitro testing, NCI-H23 (Non-Small Cell Lung Cancer)
# NCI-H226 = test: NCI in-vitro testing, NCI-H226 (Non-Small Cell Lung Cancer)
compound,measurement,setting,value
"O=Cc1cn(Cc2cccc(Cl)c2)c2ccccc12 [Oncrasin K027, 1-(3-chlorobenzyl)-1H-indole-3-carbaldehyde]",anticancer spectrum in NCI panel,[1],active in a number of cancer cell lines
same,GI50,"M14; Homo sapiens, M14",5.16 µM
same,CC50,"M14; Homo sapiens, M14, read-out: LC50",55.9 µM
same,TGI,M14; M14,2.03E−5 Molar
same,Percent Growth,"M14; M14, Log10 Concentration −4.0 Molar",−79%
same,Percent Growth,"M14; M14, Log10 Concentration −5.0 Molar",35%
same,Percent Growth,"M14; M14, Log10 Concentration −6.0 Molar",87%
same,Percent Growth,"M14; M14, Log10 Concentration −7.0 Molar",94%
same,Percent Growth,"M14; M14, Log10 Concentration −8.0 Molar",95%
same,CC50,"MOLT-4; Homo sapiens, MOLT-4, read-out: LC50",82.6 µM
same,TGI,MOLT-4; MOLT-4,3.82E−5 Molar
same,Percent Growth,"MOLT-4; MOLT-4, Log10 Concentration −4.0 Molar",−62%
same,Percent Growth,"MOLT-4; MOLT-4, Log10 Concentration −5.0 Molar",87%
same,Percent Growth,"MOLT-4; MOLT-4, Log10 Concentration −6.0 Molar",109%
same,Percent Growth,"MOLT-4; MOLT-4, Log10 Concentration −7.0 Molar",102%
same,Percent Growth,"MOLT-4; MOLT-4, Log10 Concentration −8.0 Molar",114%
same,TGI,KM12,4.15E−5 Molar
same,Percent Growth,KM12; Log10 Concentration −4.0 Molar,−54%
same,Percent Growth,KM12; Log10 Concentration −5.0 Molar,87%
same,Percent Growth,KM12; Log10 Concentration −6.0 Molar,102%
same,Percent Growth,KM12; Log10 Concentration −7.0 Molar,113%
same,Percent Growth,KM12; Log10 Concentration −8.0 Molar,108%
same,GI50,"SF-295; Homo sapiens, SF-295",1.43 µM
same,CC50,"SF-295; Homo sapiens, SF-295, read-out: LC50",> 100 µM
same,TGI,SF-295; SF-295,3.52E−5 Molar
same,Percent Growth,"SF-295; SF-295, Log10 Concentration −4.0 Molar",−15%
same,Percent Growth,"SF-295; SF-295, Log10 Concentration −5.0 Molar",18%
same,Percent Growth,"SF-295; SF-295, Log10 Concentration −6.0 Molar",56%
same,Percent Growth,"SF-295; SF-295, Log10 Concentration −7.0 Molar",80%
same,Percent Growth,"SF-295; SF-295, Log10 Concentration −8.0 Molar",104%
same,GI50,"SF-539; Homo sapiens, SF-539",10.9 µM
same,CC50,"SF-539; Homo sapiens, SF-539, read-out: LC50",86.6 µM
same,TGI,SF-539; SF-539,2.70E−5 Molar
same,Percent Growth,"SF-539; SF-539, Log10 Concentration −4.0 Molar",−73%
same,Percent Growth,"SF-539; SF-539, Log10 Concentration −5.0 Molar",55%
same,Percent Growth,"SF-539; SF-539, Log10 Concentration −6.0 Molar",104%
same,Percent Growth,"SF-539; SF-539, Log10 Concentration −7.0 Molar",110%
same,Percent Growth,"SF-539; SF-539, Log10 Concentration −8.0 Molar",108%
same,TGI,A498; A498,3.33E−8 Molar
same,Percent Growth,"A498; A498, Log10 Concentration −4.0 Molar",−94%
same,Percent Growth,"A498; A498, Log10 Concentration −5.0 Molar",−95%
same,Percent Growth,"A498; A498, Log10 Concentration −6.0 Molar",−87%
same,Percent Growth,"A498; A498, Log10 Concentration −7.0 Molar",−66%
same,Percent Growth,"A498; A498, Log10 Concentration −8.0 Molar",61%
same,GI50,"A498; Homo sapiens, A498",0.0124 µM
same,CC50,"A498; Homo sapiens, A498, read-out: LC50",0.089 µM
same,GI50,"TK-10; Homo sapiens, TK-10",0.0153 µM
same,CC50,"TK-10; Homo sapiens, TK-10, read-out: LC50",> 100 µM
same,TGI,TK-10; TK-10,8.84E−8 Molar
same,Percent Growth,"TK-10; TK-10, Log10 Concentration −4.0 Molar",−16%
same,Percent Growth,"TK-10; TK-10, Log10 Concentration −5.0 Molar",−8%
same,Percent Growth,"TK-10; TK-10, Log10 Concentration −6.0 Molar",−10%
same,Percent Growth,"TK-10; TK-10, Log10 Concentration −7.0 Molar",−3%
same,Percent Growth,"TK-10; TK-10, Log10 Concentration −8.0 Molar",62%
same,GI50,"MCF7; Homo sapiens, MCF7",0.0873 µM
same,CC50,"MCF7; Homo sapiens, MCF7, read-out: LC50",> 100 µM
same,TGI,MCF7; MCF7,2.75E−5 Molar
same,Percent Growth,"MCF7; MCF7, Log10 Concentration −4.0 Molar",−10%
same,Percent Growth,"MCF7; MCF7, Log10 Concentration −5.0 Molar",8%
same,Percent Growth,"MCF7; MCF7, Log10 Concentration −6.0 Molar",10%
same,Percent Growth,"MCF7; MCF7, Log10 Concentration −7.0 Molar",45%
same,Percent Growth,"MCF7; MCF7, Log10 Concentration −8.0 Molar",75%
same,TGI,HCT-15; HCT-15,2.58E−6 Molar
same,Percent Growth,"HCT-15; HCT-15, Log10 Concentration −4.0 Molar",−31%
same,Percent Growth,"HCT-15; HCT-15, Log10 Concentration −5.0 Molar",21%
same,Percent Growth,"HCT-15; HCT-15, Log10 Concentration −6.0 Molar",69%
same,Percent Growth,"HCT-15; HCT-15, Log10 Concentration −7.0 Molar",90%
same,Percent Growth,"HCT-15; HCT-15, Log10 Concentration −8.0 Molar",99%
same,GI50,"HCT-15; Homo sapiens, HCT-15",0.0252 µM
same,CC50,"HCT-15; Homo sapiens, HCT-15, read-out: LC50",> 100 µM
same,GI50,"RXF 393; Homo sapiens, RXF 393",< 0.01 µM
same,CC50,"RXF 393; Homo sapiens, RXF 393, read-out: LC50",23.2 µM
same,TGI,RXF 393; RXF 393,2.44E−7 Molar
same,Percent Growth,"RXF 393; RXF 393, Log10 Concentration −4.0 Molar",−85%
same,Percent Growth,"RXF 393; RXF 393, Log10 Concentration −5.0 Molar",−30%
same,Percent Growth,"RXF 393; RXF 393, Log10 Concentration −6.0 Molar",−12%
same,Percent Growth,"RXF 393; RXF 393, Log10 Concentration −7.0 Molar",7%
same,Percent Growth,"RXF 393; RXF 393, Log10 Concentration −8.0 Molar",31%
same,TGI,BT-549; BT-549,1.73E−5 Molar
same,Percent Growth,"BT-549; BT-549, Log10 Concentration −4.0 Molar",−85%
same,Percent Growth,"BT-549; BT-549, Log10 Concentration −5.0 Molar",28%
same,Percent Growth,"BT-549; BT-549, Log10 Concentration −6.0 Molar",97%
same,Percent Growth,"BT-549; BT-549, Log10 Concentration −7.0 Molar",116%
same,Percent Growth,"BT-549; BT-549, Log10 Concentration −8.0 Molar",110%
same,GI50,"BT-549; Homo sapiens, BT-549",4.82 µM
same,CC50,"BT-549; Homo sapiens, BT-549, read-out: LC50",488 µM
same,TGI,NCI/ADR-RES,3.32E−6 Molar
same,GI50,NCI/ADR-RES; Homo sapiens,9.22 µM
same,CC50,"NCI/ADR-RES; Homo sapiens, read-out: LC50",> 100 µM
same,Percent Growth,NCI/ADR-RES; Log10 Concentration −4.0 Molar,−45%
same,Percent Growth,NCI/ADR-RES; Log10 Concentration −5.0 Molar,48%
same,Percent Growth,NCI/ADR-RES; Log10 Concentration −6.0 Molar,85%
same,Percent Growth,NCI/ADR-RES; Log10 Concentration −7.0 Molar,94%
same,Percent Growth,NCI/ADR-RES; Log10 Concentration −8.0 Molar,103%
same,GI50,"NCI-H23; Homo sapiens, NCI-H23",2.9 µM
same,CC50,"NCI-H23; Homo sapiens, NCI-H23, read-out: LC50",71.1 µM
same,TGI,NCI-H23; NCI-H23,2.10E−5 Molar
same,Percent Growth,"NCI-H23; NCI-H23, Log10 Concentration −4.0 Molar",−54%
same,Percent Growth,"NCI-H23; NCI-H23, Log10 Concentration −5.0 Molar",31%
same,Percent Growth,"NCI-H23; NCI-H23, Log10 Concentration −6.0 Molar",57%
same,Percent Growth,"NCI-H23; NCI-H23, Log10 Concentration −7.0 Molar",82%
same,Percent Growth,"NCI-H23; NCI-H23, Log10 Concentration −8.0 Molar",94%
same,GI50,"NCI-H226; Homo sapiens, NCI-H226",< 0.01 µM
same,CC50,"NCI-H226; Homo sapiens, NCI-H226, read-out: LC50",0.501 µM
same,TGI,NCI-H226; NCI-H226,4.46E−8 Molar
same,Percent Growth,"NCI-H226; NCI-H226, Log10 Concentration −4.0 Molar",−65%
same,Percent Growth,"NCI-H226; NCI-H226, Log10 Concentration −5.0 Molar",−59%
same,Percent Growth,"NCI-H226; NCI-H226, Log10 Concentration −6.0 Molar",−62%
same,Percent Growth,"NCI-H226; NCI-H226, Log10 Concentration −7.0 Molar",−22%
same,Percent Growth,"NCI-H226; NCI-H226, Log10 Concentration −8.0 Molar",40%
